Test results taken from patent US5525627A, “Esters of acyl carnitines with long-chain aliphatic alcohols and pharmaceutical compositions containing same having antimycotic activity” (Sigma-Tau Industrie Farmaceutiche Riunite S.p.A., priority 1992, dated 1996).

Columns and labels:
[1] = tested on: antibody-producer B lymphocytes (spleen); assay: Test 1: primary antibody production (Jerne test) in spleen of SRBC immunized mice; type: in vivo, mice (male B6 D2F1)
Description: Test 1: Evaluation of the "in vitro-ex vivo" effect of repeated oral administrations of ST 722 on the primary antibody production (Jerne test) in the spleen of SRBC (Sheep Red Blood Cells) immunized mice.
Male B6 D2F1 mice (C. River) aged 8 weeks (6 animals each group) were utilized.
The substance (ST 722) was administered per os at the dose of 100 mg/kg/day from day -2 through day +2 (immunization at day 0). The animals were immunized by intraperitoneal route with a concentration of 1.0×10^8 cells/mouse in 0.2 ml of sterile saline.
Five days later, spleens to be submitted to teasing process were removed from the animals sacrificed by cervical dislocation. After standardization at 1.0×10^7 cells/ml. the splenocytes (0.1 ml) were mixed with warm agar-Hank's (2 ml) and 10% SRBC in PBS (0.2 ml) and seeded in Petri dishes (samples tested in triplicates) and incubated at 37° C. for 60 min.
After addition of complement (2 ml of guinea pig serum diluted 1:10 in Tris buffer), samples were further incubated at 37° C. for 30 min. To block the haemolysis reaction, the Petri dishes were cooled at 4° C. and the haemolysis plaques were counted.
The antibody response to SRBC is expressed as number of plaque forming cells (PFC) per 1.0×10^6 splenocytes as well as per spleen.

[2] = tested on: spleen, thymus and splenocytes; assay: Test 3: body, spleen and thymus weight and splenocyte concentration; type: in vivo, mice (male B6 D2 F1); conditions: 100 mg/kg/day oral, 5 consecutive days
Description: Test 3: Evaluation of the effect of repeated oral administrations of ST 722 on the body, spleen and thymus weight, and on the splenocyte concentration in mice.
Male B6 D2 F1 mice (C. River) aged 10 weeks (5 animals each group) were orally treated with the substance ST 722 at the dose of 100 mg/kg/day for 5 consecutive days. Twenty-four hours after the last administration, the animals were sacrificed, the organs removed and weighed, and the splenocyte number determined.

Candida albicans (PG) = assay: MIC and MFC for yeast and yeast-like strains; type: cell-based
Outline: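 Candida, Cryptococcus, Saccharomyces and Torulopsis strains tested by broth microdilution in Yeast Nitrogen Base with 0.15% asparagine and 1.0% glucose, buffered with 0.165 M MOPS; final inoculum about 5.0×10^4 CFU/ml from overnight (Cryptococcus 48-hour) Sabouraud cultures. MFC from spot-transfer of wells without visible growth onto Sabouraud agar.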

[3] = tested on: Aspergillus fumigatus (1/A); assay: MIC for filamentous fungi; type: cell-based; conditions: read-out: Minimal Inhibitory Concentration (MIC)
Outline: (§1)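 Inoculum was conidia from 72-hour Sabouraud agar cultures, washed off with Sabouraud medium plus Tween 80 (one drop per 10 ml) and used at 5.0×10^4 CFU/ml. The procedure followed the yeast-like fungi method, and MIC and MFC were read as reported previously.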

[4] = tested on: Aspergillus fumigatus (2/A); assay: MIC for filamentous fungi; type: cell-based; conditions: read-out: Minimal Inhibitory Concentration (MIC)
Outline: as §1

[5] = tested on: Aspergillus fumigatus (ATCC 28212); assay: MIC for filamentous fungi; type: cell-based; conditions: ATCC28212, read-out: Minimal Inhibitory Concentration (MIC)
Outline: as §1

[6] = tested on: Aspergillus fumigatus (C/1); assay: MIC for filamentous fungi; type: cell-based; conditions: read-out: Minimal Inhibitory Concentration (MIC)
Outline: as §1

[7] = tested on: Aspergillus niger (ATCC 16404); assay: MIC for filamentous fungi; type: cell-based; conditions: ATCC16404, read-out: Minimal Inhibitory Concentration (MIC)
Outline: as §1

Fusarium sp. (ISS 1) = assay: MIC for filamentous fungi; type: cell-based; conditions: read-out: Minimal Inhibitory Concentration (MIC)
Outline: as §1

Mucor mucedo (ATCC 7941) = assay: MIC for filamentous fungi; type: cell-based; conditions: ATCC7941, read-out: Minimal Inhibitory Concentration (MIC)
Outline: as §1

Penicillium sp. (1302) = assay: MIC for filamentous fungi; type: cell-based; conditions: read-out: Minimal Inhibitory Concentration (MIC)
Outline: as §1

dermatophytic fungi = assay: MIC / MFC for dermatophytic fungi, all strains; type: cell-based, Trichophyton, Microsporum, Epidermophyton; conditions: versus susceptible strains
Description: The following strains were used: Trichophyton menthagrophytes ATCC 9533, Trichophyton rubrum IHEM 4274, Microsporum canis IHEM 3522, Epydermophyton floccosum IHEM 3495. The tested substances were: ST 722, ST 1033, ST 1037, ST 1050, ST 1051, ST 1052,. ST 1053.
The assay was performed following the same procedure described for the yeasts, by using 7-day fungi cultures grown at 30° C. in Potato Dextrose agar, and harvested with Sabouraud broth and Tween 80 (0.5%).
After washing with Yeast Nitrogen Base, supplemented with asparagine and glucose (as carbon source), the fungal suspension was fragmented using a tissue grinder until the largest clumps or aggregates were undetectable within the grinder. This fungal suspension was then appropriately diluted in YNB to yield a concentration of 2.0×10^5 infective particles/ml (small mycelium fragments, micro-and macroaleuriospores).
Volumes of 100 μl both of the fungal suspensions and substance solutions, two-fold serially diluted in assay medium, were distributed into each well of a microtiter plate (96 wells, round bottom), which was incubated at 35° C. for 96 hours.

[8] = 100 mg/kg/day per os, day -2 through day +2, x ± S.E.

Q: Which results are given for CCCCCCCCCCCOC(=O)C[C@H](C[N+](C)(C)C)OC(=O)CC(C)C [ST 722, isovaleryl-L-carnitine undecyl ester chloride]?
A: PFC/10^6 cells [1, 8]: 261 ± 34 PFC/10^6 cells; PFC/spleen [1, 8]: 44440 ± 6087 PFC/spleen; PFC number after antigenic challenge ([1]; 5 consecutive days oral): did not cause a statistically significant modification in PFC number; specific immunotoxic effects on the considered parameters [2]: lack of specific immunotoxic effects; Body weight ([2]; x ± S.E.): 26.50 ± 0.53 g; Spleen weight ([2]; x ± S.E.): 73.25 ± 3.84 mg; Thymus weight ([2]; x ± S.E.): 38.80 ± 3.01 mg; MFC (Candida albicans (PG); 48 h, C. albicans PG): 3.12 µg/mL; MIC (Candida albicans (PG); 48 hours, 35° C., read-out: Minimal Inhibitory Concentration (MIC)): 3.12 µg/mL; MIC [3]: 12.5 µg/mL; MIC [4]: 12.5 µg/mL; MIC [5]: 12.5 µg/mL; MIC [6]: 12.5 µg/mL; MIC [7]: 12.5 µg/mL; MIC (Fusarium sp. (ISS 1)): 6.25 µg/mL; MIC (Mucor mucedo (ATCC 7941)): 50 µg/mL; MIC (Penicillium sp. (1302)): 12.5 µg/mL; MIC (dermatophytic fungi): 28.1 µg/mL
